Experimental findings from US4923865A, “Substituted 1-(1H-imidazol-4-yl)alkyl-benzamides as anti-ischemics and as alpha-2-adrenergic receptor agonists” (U C B Societe Anonyme, priority 1988, dated 1990) are described below.

The structures appear in SMILES notation. Read-outs that look alike come from different tables or passages of the source.

For assay [1], the system named is stenosis at the level of a coronary artery. Nature of the assay: Effort trial on a moving belt in dogs with coronary artery stenosis. The format is in vivo, dog. Conditions: dose 0.018 μmole/kg i.v.; maximum effort at 12 Km/h for 1 minute. The protocol: (b) Effort trial on a moving belt. In this test, a group of at least four dogs is used (equipped with intracardiac electrodes), the dogs having an organic stenosis at the level of a coronary artery. This stenosis causes imbalance between the demand and supply of oxygen when the animal is required to make an effort. This imbalance is expressed on the electrocardiogram by an increase in the ST-segment.
In the trial, the dog runs at a speed of 12 km/h on a moving belt having a slope of 15°. This maximum effort is required for one minute. During the trial, the increase in the ST-segment is recorded, together with the natural increase in the pulse rate. The experiment is repeated at least four times, and the mean of the values obtained is taken as reference (100%) for the group of animals. The animals are then allowed to rest for a minimum of 24 hours before being subjected to a new effort trial under the influence of the compound to be studied.
The compound to be studied is administered slowly (over 1 minute) by intravenous injection 5 minutes before the new effort trial. In the course of the latter, the variations in the same parameters are recorded.

Another assay deals with cerebral ischemia. The assay can be described thus: Unilateral, multifocal cerebral ischemia in the rat (microsphere embolization). The format is in vivo, male Sprague-Dawley SPF rats. The text has this:
(b) Unilateral, multifocal cerebral ischemia in the rat. In awake, male Sprague-Dawley SPF rats, aged from 8 to 9 months, a permanent, unilateral cerebral ischemia (or embolization) is caused by introduction of 2000 microspheres (provided by 3M, St. Paul, U.S.A.; diameter 58±2 μm) into the right carotid stream (A. M. BRALET et al., Stroke, 10, (1979), 34-38; M. LE PONCIN-LAFITTE et al., Pathol. Biol. (Paris), 30, (1982), 289-293) after the permanent ligature of the right pterygopalatine artery (Y. KIYOTA et al., Pharmacol. Biochem. Behav. 24, (1986), 687-692).
The compound to be studied is administered for the first time 30 minutes before, and for the second time 30 minutes after embolization, while the control animals receive only a physiological salt solution. The animals are then allowed to rest. After 6 days of recovery, the surviving animals are measured for:
(1) the residual neurological deficit obtained from the test of posture and gait of the animals (Test A, maximum score: 4 points). This test evaluates:
(a) abnormal positioning of the hind paws (S. IRWIN, Psychophamacologia (Berlin), 13, (1968), 222-257);
(b) contralateral inclination of the body during locomotion;
(c) homolateral longitudinal flexion of the body, and
(d) abnormal gait (B. KOLB et al., loc. cit.).
(2) The sensorimotor functions (spontaneous motility, grasping reflex, placing reactions both visual and by loss of support (Test B, maximum score: 10 points); (C. CAPDEVILLE et al., loc. cit.).
(3) The lateralized sensorimotor response (on the contralateral side) (Test C, maximum score: 3 points). This is evaluated by combining the measurements of visual placing reflex, head orientation relfex towards a lateral sensory stimulus, and the cutaneous plantar reflex (C. CAPDEVILLE et al., loc. cit.; J. F. MARSHALL et al., Science (Washington), 174, (1971), 523-525).
(4) Tactile extinction on the left side (Test D, maximum score: 300 points). By contrast with the other tests mentioned above, for which the deficit is lower when the score is higher, the deficit is here more pronounced when the score approaches 300 (T. SCHALLERT et al., Pharmacol. Biochem. Behav. 16, (1982), 455-462).
On the seventh day of recovery, the edema present in various ipsilateral cerebral structures is also measured (M. LE PONCIN-LAFITTE et al., loc. cit.).
Table IV gives the results obtained in tests A to D for compound A, administered intraperitoneally at the dose of 0.76 μg/kg (3.2 nmoles/kg), i.e. The mean of the neurological scores determined for the whole group of surviving animals of the control group and of the treated group after 6 days of recovery. Also indicated in the Table is the mean variation (in g) of body weight measured on the 7th day of recovery. The statistical significant (P) of the difference between the mean values calculated for the control animals and for the treated animals is evaluated by the Mann-Whitney test.
In Table V, the quantity of water (as an average of the percentage) retained in various ipsilateral cerebral structures in the control animals and in the treated animals surviving at the 7th day after embolization, is indicated.

Assay [2] is described as follows: Diuretic activity in beagle dogs (urine excretion). The format is in vivo. Conditions: for Mean relative increase in urine excretion: first three hours; for minimal effective dose: Canis lupus familiaris, iv, 3 h, i.v., read-out: minimum active dose that causes a statistically significant increase of the urine excretion. How it is done: 4. Diuretic activity. The diuretic activity of the compounds of the invention has been determined using beagle dogs (6 males and 6 females) be means of a 6-way randomized cross-over study.
The compounds to be studied are administered intravenously at increasing doses: 2, 6.5, 20, 65 and 200 μg/kg. During the first three hours following the injection, the volume of urine excreted is measured. Table VIII gives for compound A the mean relative increase in % of the volume of urine excreted with respect to the group of animals which have not received the compound.

In the case of `Cl.NC(=O)c1cccc(Cc2c[nH]cn2)c1O` [A, 2-hydroxyl-3-[(1H-imidazol-4-yl)methyl]-benzamide hydrochloride], in assay [1], the “reduction in ST-segment” value is recorded as 74%. In assay [1], the “reduction in the pulse rate” value is on record as 3 beats/min. Moreover, in the assay on cerebral ischemia (0.76 μg/kg i.p., 7th day of recovery, control -5.7, P <0.05), the weight variation entry was “+0.8 g”. For the same compound, in the assay with cerebral ischemia (0.76 μg/kg i.p., lateralized sensorimotor response, maximum 3 points, control 1.0, P <0.005), the “Mean neurological score 6 days after embolization, test C” value was found to be 2.0. Moreover, the “Mean neurological score 6 days after embolization, test A” value in the assay with cerebral ischemia (0.76 μg/kg i.p., posture and gait, maximum 4 points, control 1.0, P <0.01) was determined as 2.0. Moreover, in the assay on cerebral ischemia (0.76 μg/kg i.p., sensorimotor functions, maximum 10 points, control 7.3, P <0.05), the “Mean neurological score 6 days after embolization, test B” value was determined as 8.0. For the same compound, the “Mean neurological score 6 days after embolization, test D” value with cerebral ischemia (0.76 μg/kg i.p., tactile extinction, maximum 300 points, higher = greater deficit, control 243, P <0.05) turned out to be 96. Also, in the assay on cerebral ischemia (7th day after embolization, control 77.04, P < 0.05), the “Quantity of water in ipsilateral diencephalon” value came to 76.32 average %. In addition, the “Quantity of water in ipsilateral hippocampus” value with cerebral ischemia (7th day after embolization, control 80.20, P < 0.05) is 79.79 average %. Further, the “Quantity of water in ipsilateral cortex” value in the assay on cerebral ischemia (7th day after embolization, control 81.33, P < 0.01) was 80.36 average %. Besides, the “Quantity of water in ipsilateral corpus striatum” value in the assay with cerebral ischemia (7th day after embolization, control 81.57, P < 0.005) is on record as 80.05 average %. The “Mean relative increase in urine excretion” value amounted to 74% in assay [2] (2 μg/kg i.v., females, P < 0.05); 25% in assay [2] (2 μg/kg i.v., males); 291% in assay [2] (6.5 μg/kg i.v., females, P < 0.01); 122% in assay [2] (6.5 μg/kg i.v., males, P < 0.05); 531% in assay [2] (20 μg/kg i.v., females, P < 0.01); 383% in assay [2] (20 μg/kg i.v., males, P < 0.01). For the same compound, the “Mean relative increase in urine excretion” value amounted to 804% in assay [2] (65 μg/kg i.v., females, P < 0.01); 345% in assay [2] (65 μg/kg i.v., males, P < 0.01); 988% in assay [2] (200 μg/kg i.v., females, P < 0.01); 412% in assay [2] (200 μg/kg i.v., males, P < 0.01). Further, the minimal effective dose was at most 2 µg/kg in assay [2] (females) and at most 6.5 µg/kg in assay [2] (males).
